# From PubChem BioAssay (NCI)
#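 Step 1: Grow cells in 96-well plates. Step 2: Expose to compound for 48 hours at 5 concentrations. Step 3: Interpolate endpoints linearly; if unreached, use highest concentration. Here, GI50 denotes the concentration required for 50% inhibition of growth. TGI: concentration producing complete growth inhibition.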
# How the values were obtained:
# Test in all cases: growth of human tumour cells (NCI), 48 h
# [1] = test system: 786-0 renal
# [2] = test system: A498 renal
# [3] = test system: A549 NSCLC
# [4] = test system: ACHN renal
# [5] = test system: BT-549 breast
# [6] = test system: CAKI-1 renal
# [7] = test system: CCRF-CEM leukemia
# [8] = test system: COLO 205 colon
# [9] = test system: DU-145 prostate
# [10] = test system: EKVX NSCLC
# [11] = test system: HCC-2998 colon
# [12] = test system: HCT-116 colon
# [13] = test system: HCT-15 colon
# [14] = test system: HL-60(TB) leukemia
# [15] = test system: HOP-62 NSCLC
# [16] = test system: HOP-92 NSCLC
# [17] = test system: HS 578T breast
# [18] = test system: HT29 colon
# [19] = test system: IGROV1 ovarian
# [20] = test system: K-562 leukemia
# [21] = test system: KM12 colon
# [22] = test system: LOX IMVI melanoma
# [23] = test system: M14 melanoma
# [24] = test system: MALME-3M melanoma
# [25] = test system: MCF7 breast
# [26] = test system: MDA-MB-231 breast
# [27] = test system: MDA-MB-435
# [28] = test system: MDA-MB-468 breast
# [29] = test system: NCI-H226 lung
# [30] = test system: NCI-H23 lung
# [31] = test system: NCI-H460 lung
# [32] = test system: NCI-H522 lung
# [33] = test system: OVCAR-3 ovarian
# [34] = test system: OVCAR-4 ovarian
# [35] = test system: OVCAR-5 ovarian
# [36] = test system: OVCAR-8 ovarian
# [37] = test system: PC-3 prostate
# [38] = test system: RPMI-8226 leukemia
# [39] = test system: RXF 393 renal
# [40] = test system: SF-268 CNS
# [41] = test system: SF-295 CNS
# [42] = test system: SF-539 CNS
# [43] = test system: SK-MEL-2 melanoma
# [44] = test system: SK-MEL-28 melanoma
# [45] = test system: SK-MEL-5 melanoma
# [46] = test system: SK-OV-3 ovarian
# [47] = test system: SN12C renal
# [48] = test system: SNB-19 CNS
# [49] = test system: SNB-75 CNS
# [50] = test system: SR leukemia
# [51] = test system: SW-620 colon
# [52] = test system: T-47D breast
# [53] = test system: TK-10 renal
# [54] = test system: U251 CNS
# [55] = test system: UACC-257 melanoma
# [56] = test system: UACC-62 melanoma
# [57] = test system: UO-31 renal
smiles,measurement,setting,value
Cn1nc(C(F)(F)F)cc1-c1cc(Cl)c(COc2ccc(Cl)cc2)c(-c2ccc(Cl)c(C(F)(F)F)c2)c1O,GI50,[1],2.62 µM
same,TGI,[1],7.97 µM
same,GI50,[2],2.53 µM
same,TGI,[2],7.3 µM
same,GI50,[3],3.36 µM
same,TGI,[3],15.5 µM
same,GI50,[4],2.23 µM
same,TGI,[4],9.21 µM
same,GI50,[5],1.85 µM
same,TGI,[5],7.48 µM
same,GI50,[6],2.17 µM
same,TGI,[6],7.56 µM
same,GI50,[7],1.75 µM
same,TGI,[7],10.8 µM
same,GI50,[8],1.38 µM
same,TGI,[8],2.75 µM
same,GI50,[9],3.08 µM
same,TGI,[9],14.1 µM
same,GI50,[10],2.51 µM
same,TGI,[10],10.4 µM
same,GI50,[11],1.68 µM
same,TGI,[11],10.5 µM
same,GI50,[12],1.71 µM
same,TGI,[12],10.5 µM
same,GI50,[13],1.28 µM
same,TGI,[13],7.14 µM
same,GI50,[14],2.18 µM
same,TGI,[14],5.69 µM
same,GI50,[15],3.26 µM
same,TGI,[15],10.8 µM
same,GI50,[16],1.61 µM
same,TGI,[16],4.38 µM
same,GI50,[17],1.82 µM
same,TGI,[17],6.58 µM
same,GI50,[18],3.36 µM
same,TGI,[18],14.6 µM
same,GI50,[19],2.92 µM
same,TGI,[19],14.3 µM
same,GI50,[20],0.509 µM
same,TGI,[20],> 100 µM
same,GI50,[21],2.85 µM
same,TGI,[21],10.8 µM
same,GI50,[22],3.11 µM
same,TGI,[22],10.6 µM
same,GI50,[23],2.74 µM
same,TGI,[23],8.16 µM
same,GI50,[24],1.96 µM
same,TGI,[24],5.16 µM
same,GI50,[25],1.26 µM
same,TGI,[25],10 µM
same,GI50,[26],1.88 µM
same,TGI,[26],5.2 µM
same,GI50,[27],3.02 µM
same,TGI,[27],10.3 µM
same,GI50,[28],1.95 µM
same,TGI,[28],8.03 µM
same,GI50,[29],2.72 µM
same,TGI,[29],9.52 µM
same,GI50,[30],1.45 µM
same,TGI,[30],4.77 µM
same,GI50,[31],1.27 µM
same,TGI,[31],7.3 µM
same,GI50,[32],1.79 µM
same,TGI,[32],13.4 µM
same,GI50,[33],2.26 µM
same,TGI,[33],12.6 µM
same,GI50,[34],3.11 µM
same,TGI,[34],13.5 µM
same,GI50,[35],3.83 µM
same,TGI,[35],13.5 µM
same,GI50,[36],3.09 µM
same,TGI,[36],14.5 µM
same,GI50,[37],1.57 µM
same,TGI,[37],10.5 µM
same,GI50,[38],1.06 µM
same,TGI,[38],5.4 µM
same,GI50,[39],1.64 µM
same,TGI,[39],5.54 µM
same,GI50,[40],2.33 µM
same,TGI,[40],13.1 µM
same,GI50,[41],1.88 µM
same,TGI,[41],4.12 µM
same,GI50,[42],2.06 µM
same,TGI,[42],5.69 µM
same,GI50,[43],2.09 µM
same,TGI,[43],5.3 µM
same,GI50,[44],2.88 µM
same,TGI,[44],11.7 µM
same,GI50,[45],1.18 µM
same,TGI,[45],2.71 µM
same,GI50,[46],3.02 µM
same,TGI,[46],11 µM
same,GI50,[47],1.26 µM
same,TGI,[47],7.7 µM
same,GI50,[48],2.25 µM
same,TGI,[48],13.1 µM
same,GI50,[49],2 µM
same,TGI,[49],8.07 µM
same,GI50,[50],2.66 µM
same,TGI,[50],> 100 µM
same,GI50,[51],3.13 µM
same,TGI,[51],12.1 µM
same,GI50,[52],0.724 µM
same,TGI,[52],8.7 µM
same,GI50,[53],3.3 µM
same,TGI,[53],15.6 µM
same,GI50,[54],2.42 µM
same,TGI,[54],14.3 µM
same,GI50,[55],2.67 µM
same,TGI,[55],10.5 µM
same,GI50,[56],1.45 µM
same,TGI,[56],4.88 µM
same,GI50,[57],2.57 µM
same,TGI,[57],8.6 µM
